Key:
RAGE-C1q binding = target: T1, RAGE-C1q binding (Homo sapiens, UniProt P02745+P02746+P02747); assay: ELISA-like C1q-sRAGE binding assay in presence of test substance; settings: for ability of known RAGE ligands to block C1q binding to immobilized sRAGE: data not shown; for effect on C1q binding to immobilized sRAGE (RAGE-C1q interaction): 0-2 mM compound with 2 μg/ml C1q, 2 h
T1 construct: Three forms of human sRAGE, the extracellular domain of the receptor, were utilized; made in house; host or cells: Sf9 insect cells (baculovirus)
Experimental: “+” and “−” in (B) and (C) indicate whether the C1q was preincubated with monoclonal antibody or not, respectively. Results in (B) and (C) were mean±SD of three independent experiments. *p<0.01 in pair comparison indicated in the graph.
The final peroxidase activity was monitored at 492 nm with o-phenylenediamine dihydrochloride and hydrogen peroxide as substrates. […] Remaining binding sites were blocked with 5% non-fat milk in PBS. […] ECL Western blot detection kit was used to visualize the binding.

complement system = assay: Complement activation assay (C3a formation in human serum); type: biochemical
Experimental: Complement activation was monitored as C3a formation from proteolytic cleavage of C3 by ELISA kit.
C3a was assayed by ELISA kit.
Two different forms of each protein were tested, one was immobilized and the other was free molecule in serum (dissolved). For immobilized forms, 96-well MaxiSorp plate was coated with 50 μg/ml of each protein and blocked with BSA. Complement activation was performed as in (A).
After 1 h incubation, C3a levels in the human serum were determined as a marker of complement activation with human C3a EIA kit according to the manufacturer's instructions.

[1] = tested on: RAGE-overexpressing cells; assay: Steady state binding of free C1q to RAGE-overexpressing cells; type: cell-based, human; settings: data not shown
Source text: RAGE expression was compared with another RAGE over-expressing cell line C6-RAGE, generated from rat astroglial C6 (Taguchi, 2000), with the result shown in FIG. 15A.
FIG. 10E was used (data not shown). […] The results using rat native serum with RAGE-transfected C6 cells produced similarly unremarkable results (results not shown).

Mac-1 = target: T2, Mac-1 (Homo sapiens, UniProt P05107+P11215); assay: Pull-down of sRAGE and C1q by immobilized Mac-1; type: binding; settings: ½ PBS
T2 construct: purchased R&D Systems 4047-AM
Experimental: The plate was cooled down on ice for 10 min and washed quickly three-times with cold ½ PBS. […] Stripping of Western blot membranes was performed with buffer from Pierce according to the manufacturer's instructions.

U937 cells [2] = assay: Phagocytosis of apoptotic Jurkat cells by differentiated U937 cells (FACS); type: cell-based, human; settings: with addition of C1q; basal level 47%
Experimental: (A) Representative dot-plots of different cell populations separated by FACS after 2 h phagocytosis of apoptotic Jurkat cells: top-left U937 cells without phagocytosis; top-right phagocytic U937 cells labeled with percentage of total U937 population; bottom-right apoptotic Jurkat cells. (B) FACS analysis of phagocytosis of apoptotic Jurkat cells and effect of anti-RAGE and anti-CD11b antibodies. […] Results in (B) and (D) were mean±SD of three independent experiments. *p<0.01 in pair comparison indicated in the graph.
U937 cells (2×10^5/ml) were differentiated in standard medium containing 100 nM of vitamin D3 and 2 ng/ml of TGF-β1 at 37° C. in a 5% CO2 incubator for 2 days, with refreshment of vitamin D3 and TGF-β1 at 24 h. Differentiated U937 cells were harvested and re-suspended in Hank's Balanced Salt Solution (HESS, containing calcium and magnesium) at 2×10^6/ml, and then labeled with 5 μM of CM-DiI at 37° C. for 20 min. Labeling was ended by washing cells three times with HESS. The resulted cells were re-suspended at 4×10^5/ml in phagocytosis buffer (HESS plus 2 mM MgCl2 and 20 mM glutamate, pH 7.0).
To label Jurkat cells with CFSE (carboxyfluorescein succinimidyl ester), Jurkat cells were incubated with 1 μM of CFDA-SE in HESS for 30 min at 37° C. Harvested cells were resuspended (1×10^6/ml) in HESS containing 1 μM of staurosporine and incubated at 37° C. for 6 h. […]

U937 cells [3] = assay: Monocyte adhesion: U937 cells to C1q-coated plate; type: cell-based, human; settings: 2 mM in medium, 24 h
Experimental: U-937 cells (2×10^5/ml) cultured in RPMI medium containing 10% fetal bovine serum, 100 units/ml of penicillin and 100 μg/ml of streptomycin were incubated with 100 nM of D3 and 2 ng/ml of TGF-β at 37° C. in a 5% CO2 incubator for 24 hours. After washing twice with serum-free RPMI medium, U-937 cells were suspended at concentration of 2×10^5/ml in serum-free RPMI medium containing 0 or 100 μg/ml of chicken anti-human RAGE IgY or 20 μg/ml of F(ab′)2 of mouse anti-human CD11b IgG1. As controls, 100 μg/ml of chicken anti-AGE IgY and 100 μg/ml of mouse IgG1 isotype control were used. […] The cells were cultured for 24 hours, then 50 μl of serum-free RPMI medium containing 15 μM of Calcein AM was added into each well to label U-937 cells with fluorescence for 1 hour. After three gentle washes with Hanks' balanced salt solution, the attached U-937 cells were photographed with regular light and fluorescent light, as shown in panel A. To quantitatively measure cell attachment, the plate was read with fluorescence plate reader with excitation at 485 nm and emission at 530 nm, as shown in panel B. The p value was calculated by student T-test with at least 4 samples for each condition. […]
(A) ARPE-19RAGE cells expressed high level of RAGE protein. Ten micrograms of total proteins from ARPE-19, ARPE-19RAGE and RAGE-transfected C6 cells (C6-RAGE) were analyzed for RAGE expression by Western blot. […]

U-937 cells = assay: Cytotoxicity and activation/differentiation test on U-937 cells; type: cell-based, human
Source text: Phenolphthalein bisphosphate has been used in bacteria culture media as phosphatase substrate. […] Phagocytes are major protective cells in the body by ingesting harmful foreign particles, bacteria, and dead or dying cells. In an in vivo abdominal sepsis model caused by intraperitoneally injection with Escherichia coli, RAGE was involved in defense against the growth and/or dissemination of E. coli (The Journal of Infectious Diseases 2009, 200:765-773). In the presence of RAGE, E. coli numbers were much lower in the injection site as well as in major organs of the mouse. With the help of phenolphthalein bisphosphate, we expect that RAGE's function in this sepsis model could be enhanced further.

T1 sequence (P02745 23-245): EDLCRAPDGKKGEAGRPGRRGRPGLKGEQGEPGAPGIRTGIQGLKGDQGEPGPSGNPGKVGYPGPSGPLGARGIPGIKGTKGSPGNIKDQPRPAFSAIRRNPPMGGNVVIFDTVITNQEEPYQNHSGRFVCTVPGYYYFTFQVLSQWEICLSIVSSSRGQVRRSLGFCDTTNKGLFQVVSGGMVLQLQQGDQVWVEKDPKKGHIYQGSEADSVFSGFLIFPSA
T1 sequence (P02746 28-253): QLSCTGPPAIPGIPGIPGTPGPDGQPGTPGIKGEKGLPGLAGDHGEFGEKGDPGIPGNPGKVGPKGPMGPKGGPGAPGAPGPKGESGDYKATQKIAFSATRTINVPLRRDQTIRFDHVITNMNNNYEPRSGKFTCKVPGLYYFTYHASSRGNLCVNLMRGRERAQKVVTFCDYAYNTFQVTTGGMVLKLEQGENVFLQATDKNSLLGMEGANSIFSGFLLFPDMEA
T1 sequence (P02747 29-245): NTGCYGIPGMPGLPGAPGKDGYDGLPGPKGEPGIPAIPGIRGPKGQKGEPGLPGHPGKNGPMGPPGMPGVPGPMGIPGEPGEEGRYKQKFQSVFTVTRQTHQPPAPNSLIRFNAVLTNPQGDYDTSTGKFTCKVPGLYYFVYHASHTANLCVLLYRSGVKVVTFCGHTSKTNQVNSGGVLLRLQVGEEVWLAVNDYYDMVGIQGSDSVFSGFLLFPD
T2 sequence (P05107 23-700 limits assumed, other chains not shown): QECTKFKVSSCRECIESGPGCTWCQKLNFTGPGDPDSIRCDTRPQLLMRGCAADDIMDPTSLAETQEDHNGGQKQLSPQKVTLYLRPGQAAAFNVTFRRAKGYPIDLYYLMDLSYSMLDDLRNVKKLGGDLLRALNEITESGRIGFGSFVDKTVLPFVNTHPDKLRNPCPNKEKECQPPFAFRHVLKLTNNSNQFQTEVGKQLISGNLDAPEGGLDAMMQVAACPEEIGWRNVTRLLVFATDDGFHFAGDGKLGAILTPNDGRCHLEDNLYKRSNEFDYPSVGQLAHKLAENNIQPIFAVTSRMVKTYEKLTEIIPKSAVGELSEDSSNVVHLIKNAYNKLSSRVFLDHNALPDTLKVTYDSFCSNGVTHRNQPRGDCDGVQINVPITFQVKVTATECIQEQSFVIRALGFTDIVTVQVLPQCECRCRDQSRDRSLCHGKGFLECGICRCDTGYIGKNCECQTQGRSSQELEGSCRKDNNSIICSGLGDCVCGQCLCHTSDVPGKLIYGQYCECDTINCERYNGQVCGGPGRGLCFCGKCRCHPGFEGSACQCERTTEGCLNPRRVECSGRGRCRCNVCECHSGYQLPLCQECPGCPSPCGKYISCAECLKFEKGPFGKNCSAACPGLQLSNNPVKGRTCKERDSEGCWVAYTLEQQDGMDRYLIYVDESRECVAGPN

51003: known RAGE ligand; S100B obtained from Calbiochem [compound 51003]
ability of known RAGE ligands to block C1q binding to immobilized sRAGE (RAGE-C1q binding): unable to block C1q binding to immobilized sRAGE

Mac-1: recombinant form of human Mac-1 (CD11b/CD18), R&D Systems 4047-AM
complement activation in liquid phase (complement system; protein(s) preincubated in PBS then added to fresh human serum (FIG. 13B)): could not activate the complement system

C1q: human C1q protein (Quidel); first subcomponent of the C1 complex of the classical complement pathway
binding of free C1q to cells [1]: did not bind
pull-down by immobilized Mac-1, proteins incubated separately (Mac-1): pulled down
pull-down by immobilized Mac-1, sRAGE and C1q co-incubated (Mac-1): increased
phagocytic U937 cells population, of total U937 cells (U937 cells [2]): 66%

amyloid β protein fragment 1-42 [A-beta]
ability of known RAGE ligands to block C1q binding to immobilized sRAGE (RAGE-C1q binding): unable to block C1q binding to immobilized sRAGE

AGE-BSA: glycated bovine serum albumin
ability of known RAGE ligands to block C1q binding to immobilized sRAGE (RAGE-C1q binding): unable to block C1q binding to immobilized sRAGE

Avastin: a humanized IgG1 antibody for VEGF
complement activation (C3a) activity relative to sRAGE (complement system; at every coating concentration): about 8 times

O=C1OC(c2ccc(OP(=O)([O-])[O-])cc2)(c2ccc(OP(=O)([O-])[O-])cc2)c2ccccc21.[Na+].[Na+].[Na+].[Na+] [phenolphthalein bisphosphate, Phenolphthalein bisphosphate tetrasodium salt]
effect on C1q binding to immobilized sRAGE (RAGE-C1q interaction) (RAGE-C1q binding): Phenolphthalein bisphosphate enhanced RAGE-C1q
effect on C1q binding to immobilized sRAGE (RAGE-C1q interaction) (RAGE-C1q binding; listed as Phenolphthalein Biphosphate): enhance RAGE-C1q interaction with dose-dependent manor
effect of compound on U-937 cells adhesion to C1q-coated plate (U937 cells [3]): significantly increase the adherent U-937 cells
effect of compound on U-937 cells adhesion to C1q-coated plate (U937 cells [3]; listed as Phenolphthalein bisphosphate): Phenolphthalein bisphosphate increased monocytes
activation or differentiation of U-937 cells (U-937 cells): couldn't activate or differentiate U-937 cells
cytotoxicity (U-937 cells; 2 mM): no cytotoxicity
effect on complement activation of sRAGE (complement system; 1 mM compound, 2 μg sRAGE in 20 μl fresh human serum): without enhancement on complement activation

— patent US20160139120A1 (The Trustees of Columbia University in the City of New York, priority 2013, published 2016)
